Test system: OVX rats
Test: OVX rat model on osteoporosis: boneweight
Type: in vivo
Design: key to Anabolic effect on boneweight, Tibia, vs 1,25D3 / Anabolic effect on boneweight, Tibial Meta., vs 1,25D3 / Anabolic effect on boneweight, L4, vs 1,25D3 / Anabolic effect on boneweight, Femur, vs 1,25D3: <: less effect than the reference dose of 1,25D3 (0.25 ug/kg); <=: less or the same effect as the reference dose of 1,25D3 (0.25 ug/kg); =: same effect as the reference dose of 1,25D3 (0.25 ug/kg); =>: same or better effect as the reference dose of 1,25D3 (0.25 ug/kg); >: better effect than the reference dose of 1,25D3 (0.25 ug/kg)
Details: for Anabolic effect on boneweight, Femur, vs 1,25D3 / Anabolic effect on boneweight, Femur, vs Ovx contr / Anabolic effect on boneweight, L4, vs 1,25D3 / Anabolic effect on boneweight, L4, vs Ovx contr / Anabolic effect on boneweight, Tibia, vs 1,25D3 / Anabolic effect on boneweight, Tibia, vs Ovx contr / Anabolic effect on boneweight, Tibial Meta., vs 1,25D3 / Anabolic effect on boneweight, Tibial Meta., vs Ovx contr: oral 28 days
Source text: FIG. 1 is a graphic illustration of the effect on the weight of the lumbal vertebrae, L4, in rats according to the OVX rat model described herein, and wherein the animal groups received treatment according to the scheme below. A statistical analysis is shown below the graphic illustration. Differences between groups were investigated by the Kruskal-Wallis test, including a multiple comparison procedure: ns represents non-significant, nt represents not tested, and * represents p<0.05. Differences were considered significant at a p<0.05. Results are presented in the bar diagram as means+SD.
The animals were divided into 6 groups: • Group 1: Intact control, dosed Propylene glycol 0.1 ml/kg (Vehicle) • Group 2: OVX rats control, dosed Propylene glycol 0.1 ml/kg (Vehicle) • Group 3: OVX rats, dosed 1α,25(OH)2D3, […], dosed Compound 145, […]
Pharmacological Methods—OVX Rat Model on Osteoporosis
To study bone anabolic properties and the effects of the vitamin D analogues of the present invention in preventing or treating demineralisation of the skeleton in vivo, a 4 weeks OVX rat model was used:
An ovariectomized rat model (OVX model), orally dosed for 28 days is useful for screening of vitamin D analogues. In this model ovariectomy produces alterations in the cancellous network identical to those seen in the human skeleton during ageing and the menopause. Besides this the model and the following analyses can be performed under very standardised conditions. 1α,25(OH)2D3 is used as a reference compound.
Female Sprague Dawley rats weighing approximately 130 g (40–45 days old) were purchased from MB, Ejby, Denmark. The animals were fed a commercial diet and allowed free access to food and drinking water. The animals were split into groups receiving differential treatment.
The animals were anaesthetised and ovariectomized through a dorsal incision.
Treatment of OVX animals was started 2 weeks after ovariectomy.
The animals were dosed orally for 28 days. The oral dosage was by gavage 0.1 ml/100 g bodyweight. The bodyweight of each animal was recorded every day prior to oral dosing. On day 7, 14, 21 and 28 the animals were housed separately for 24 hours in metabolic cages for collection of urine. Urine was frozen at −20° C. for later calcium measurement.
Left and right femur, left and right tibia, lumbal vertebrae 3 and 4 (L3 and L4) were removed and cleaned for all soft- and connecting tissue. Left femur, left and right tibia and L4 were dried in an oven at 50–60° C. for at least 24 hours and immediately hereafter weighed. The bones were burned in an oven at 800° C. for 4 hours, dissolved in 1N HCl, and analysed for calcium content in a Hitachi 911 autoanalyser. Right femur and L3 were kept in 0.9% NaCl and frozen at −20° C. for later biomechanical testing performed by Jesper Skovhus Thomsen and Lis Mosekilde at Aarhus University, measuring various biomechanical parameters.
Effect of Compound 145 compared to the reference dose of 1,25(OH)2D3 (1,25D3) (0.25 μg/kg) and compared to the OVX control group (shown in %) are shown in Tables 1 to 4.

Q: What does the source list for C=C1C(=CC=C2CCCC3(C)C2CCC3C(C)CSc2ccc(C(C)(C)O)cc2)CC(O)CC1O [Compound 145, 1(S),3(R)-Dihydroxy-20(R)-(4-((1-hydroxy-1-methyl)ethyl)phenylthiomethyl)-9,10-seco-pregna-5(Z),7(E),10(19)-triene]?
A: Anabolic effect on boneweight, Femur, vs 1,25D3 (1 μg/kg, MTR/16): <=; Anabolic effect on boneweight, Femur, vs Ovx contr (1 μg/kg, MTR/16): 6%; Anabolic effect on boneweight, L4, vs 1,25D3 (1 μg/kg, MTR/16): <=; Anabolic effect on boneweight, L4, vs Ovx contr (1 μg/kg, MTR/16): 9%; Anabolic effect on boneweight, Tibia, vs 1,25D3 (1 μg/kg, MTR/16): <=; Anabolic effect on boneweight, Tibia, vs Ovx contr (1 μg/kg, MTR/16): 6%; Anabolic effect on boneweight, Tibial Meta., vs 1,25D3 (1 μg/kg, MTR/16): <; Anabolic effect on boneweight, Tibial Meta., vs Ovx contr (1 μg/kg, MTR/16): 6%; Anabolic effect on boneweight, Femur, vs 1,25D3 (10 μg/kg, MTR/16): >; Anabolic effect on boneweight, Femur, vs Ovx contr (10 μg/kg, MTR/16): 10%; Anabolic effect on boneweight, L4, vs 1,25D3 (10 μg/kg, MTR/16): >; Anabolic effect on boneweight, L4, vs Ovx contr (10 μg/kg, MTR/16): 13%; Anabolic effect on boneweight, Tibia, vs 1,25D3 (10 μg/kg, MTR/16): >; Anabolic effect on boneweight, Tibia, vs Ovx contr (10 μg/kg, MTR/16): 8%; Anabolic effect on boneweight, Tibial Meta., vs 1,25D3 (10 μg/kg, MTR/16): >; Anabolic effect on boneweight, Tibial Meta., vs Ovx contr (10 μg/kg, MTR/16): 14%; Anabolic effect on boneweight, Femur, vs 1,25D3 (10 μg/kg, MTR/23): >=; Anabolic effect on boneweight, Femur, vs Ovx contr (10 μg/kg, MTR/23): 5%; Anabolic effect on boneweight, L4, vs 1,25D3 (10 μg/kg, MTR/23): >=; Anabolic effect on boneweight, L4, vs Ovx contr (10 μg/kg, MTR/23): 4%; Anabolic effect on boneweight, Tibia, vs 1,25D3 (10 μg/kg, MTR/23): >=; Anabolic effect on boneweight, Tibia, vs Ovx contr (10 μg/kg, MTR/23): 5%; Anabolic effect on boneweight, Tibial Meta., vs 1,25D3 (10 μg/kg, MTR/23): <; Anabolic effect on boneweight, Tibial Meta., vs Ovx contr (10 μg/kg, MTR/23): 8%; Anabolic effect on boneweight, Femur, vs 1,25D3 (25 μg/kg, MTR/27): >; Anabolic effect on boneweight, Femur, vs Ovx contr (25 μg/kg, MTR/27): 4%; Anabolic effect on boneweight, L4, vs 1,25D3 (25 μg/kg, MTR/27): >; Anabolic effect on boneweight, L4, vs Ovx contr (25 μg/kg, MTR/27): 9%; Anabolic effect on boneweight, Tibia, vs 1,25D3 (25 μg/kg, MTR/27): >; Anabolic effect on boneweight, Tibia, vs Ovx contr (25 μg/kg, MTR/27): 3%; Anabolic effect on boneweight, Tibial Meta., vs 1,25D3 (25 μg/kg, MTR/27): >; Anabolic effect on boneweight, Tibial Meta., vs Ovx contr (25 μg/kg, MTR/27): −2%; Anabolic effect on boneweight, Femur, vs 1,25D3 (50 μg/kg, MTR/23): >>; Anabolic effect on boneweight, Femur, vs Ovx contr (50 μg/kg, MTR/23): 14%; Anabolic effect on boneweight, L4, vs 1,25D3 (50 μg/kg, MTR/23): >>; Anabolic effect on boneweight, L4, vs Ovx contr (50 μg/kg, MTR/23): 15%; Anabolic effect on boneweight, Tibia, vs 1,25D3 (50 μg/kg, MTR/23): >>; Anabolic effect on boneweight, Tibia, vs Ovx contr (50 μg/kg, MTR/23): 13%; Anabolic effect on boneweight, Tibial Meta., vs 1,25D3 (50 μg/kg, MTR/23): =; Anabolic effect on boneweight, Tibial Meta., vs Ovx contr (50 μg/kg, MTR/23): 22%; Anabolic effect on boneweight, Femur, vs 1,25D3 (50 μg/kg, MTR/27): >; Anabolic effect on boneweight, Femur, vs Ovx contr (50 μg/kg, MTR/27): 6%; Anabolic effect on boneweight, L4, vs 1,25D3 (50 μg/kg, MTR/27): >; Anabolic effect on boneweight, L4, vs Ovx contr (50 μg/kg, MTR/27): 11%; Anabolic effect on boneweight, Tibia, vs 1,25D3 (50 μg/kg, MTR/27): >; Anabolic effect on boneweight, Tibia, vs Ovx contr (50 μg/kg, MTR/27): 4%; Anabolic effect on boneweight, Tibial Meta., vs 1,25D3 (50 μg/kg, MTR/27): >; Anabolic effect on boneweight, Tibial Meta., vs Ovx contr (50 μg/kg, MTR/27): −1%; Anabolic effect on boneweight, Femur, vs 1,25D3 (75 μg/kg, MTR/27): >; Anabolic effect on boneweight, Femur, vs Ovx contr (75 μg/kg, MTR/27): 8%; Anabolic effect on boneweight, L4, vs 1,25D3 (75 μg/kg, MTR/27): >; Anabolic effect on boneweight, L4, vs Ovx contr (75 μg/kg, MTR/27): 13%; Anabolic effect on boneweight, Tibia, vs 1,25D3 (75 μg/kg, MTR/27): >; Anabolic effect on boneweight, Tibia, vs Ovx contr (75 μg/kg, MTR/27): 7%; Anabolic effect on boneweight, Tibial Meta., vs 1,25D3 (75 μg/kg, MTR/27): >>; Anabolic effect on boneweight, Tibial Meta., vs Ovx contr (75 μg/kg, MTR/27): 9%; Anabolic effect on boneweight, Femur, vs 1,25D3 (100 μg/kg, MTR/23): >; Anabolic effect on boneweight, Femur, vs Ovx contr (100 μg/kg, MTR/23): 9%; Anabolic effect on boneweight, L4, vs 1,25D3 (100 μg/kg, MTR/23): >; Anabolic effect on boneweight, L4, vs Ovx contr (100 μg/kg, MTR/23): 12%; Anabolic effect on boneweight, Tibia, vs 1,25D3 (100 μg/kg, MTR/23): >; Anabolic effect on boneweight, Tibia, vs Ovx contr (100 μg/kg, MTR/23): 7%; Anabolic effect on boneweight, Tibial Meta., vs 1,25D3 (100 μg/kg, MTR/23): =; Anabolic effect on boneweight, Tibial Meta., vs Ovx contr (100 μg/kg, MTR/23): 24%; bone anabolic effects (boneweight, biomechanical strength) compared to 1,25D3 (summary of Tables 1 to 4, FIG. 1 and FIG. 2): comparable to or even better than 1,25D3

From patent US7071178B2, “Use of vitamin D-derivatives in the treatment of osteoporosis and related bone disorders, as well as novel vitamin D3-derivatives” (Leo Pharmaceutical Products, Ltd., priority 2000, dated 2006)
